# In ChEMBL document CHEMBL5230157, “The natural anthraquinone dye purpurin exerts antibacterial activity by perturbing the FtsZ assembly” (Bioorg Med Chem, 2021):
# pIC50: −log10 of the molar value. Active and inactive are the calls of the source. No cut-off for these calls is given here.
# Legend:
# Escherichia coli [1] = assay: Antibacterial activity against Escherichia coli XL1 assessed as bacterial growth inhibition at 300 uM by spectrophotometric method; type: functional; conditions: read-out: GI
# Bacillus subtilis [2] = assay: Antibacterial activity against Bacillus subtilis 168 assessed as bacterial growth inhibition at 5 uM by spectrophotometric method; type: functional; conditions: read-out: GI
# Bacillus subtilis [3] = assay: Antibacterial activity against Bacillus subtilis 168 assessed as bacterial growth inhibition at 10 uM by spectrophotometric method; type: functional; conditions: read-out: GI
# Bacillus subtilis [4] = assay: Antibacterial activity against Bacillus subtilis 168 assessed as bacterial growth inhibition at 20 uM by spectrophotometric method; type: functional; conditions: read-out: GI
# Bacillus subtilis [5] = assay: Antibacterial activity against Bacillus subtilis 168 assessed as bacterial growth inhibition at 30 uM by spectrophotometric method; type: functional; conditions: read-out: GI
# Bacillus subtilis [6] = assay: Antibacterial activity against Bacillus subtilis 168 assessed as bacterial growth inhibition by spectrophotometric method; type: functional, organism-based
# Bacillus subtilis [7] = assay: Antibacterial activity against Bacillus subtilis 168 assessed as minimum inhibitory concentration by spectrophotometric method; type: functional
# Escherichia coli [8] = assay: Antibacterial activity against Escherichia coli XL1 assessed as bacterial growth inhibition at 10 uM by spectrophotometric method; type: functional; conditions: read-out: GI
# Escherichia coli [9] = assay: Antibacterial activity against Escherichia coli XL1 assessed as bacterial growth inhibition at 20 uM by spectrophotometric method; type: functional; conditions: read-out: GI
# Escherichia coli [10] = assay: Antibacterial activity against Escherichia coli XL1 assessed as bacterial growth inhibition at 30 uM by spectrophotometric method; type: functional; conditions: read-out: GI
# Escherichia coli [11] = assay: Antibacterial activity against Escherichia coli XL1 assessed as bacterial growth inhibition at 80 uM by spectrophotometric method; type: functional; conditions: read-out: GI
# Escherichia coli [12] = assay: Antibacterial activity against Escherichia coli XL1 assessed as bacterial growth inhibition at 150 uM by spectrophotometric method; type: functional; conditions: read-out: GI
# Escherichia coli [13] = assay: Antibacterial activity against Escherichia coli XL1 assessed as bacterial growth inhibition at 200 uM by spectrophotometric method; type: functional; conditions: read-out: GI
# Bacillus subtilis [14] = assay: Antibacterial activity against Bacillus subtilis 168 assessed as increase in average cell length at 7 uM incubated for 4 hrs in 9% of bacterial cells by fluorescent microscopy; type: functional
# Bacillus subtilis [15] = assay: Antibacterial activity against Bacillus subtilis 168 assessed as increase in average cell length at 7 uM incubated for 4 hrs in 45% of bacterial cells by fluorescent microscopy; type: functional
# Bacillus subtilis [16] = assay: Antibacterial activity against Bacillus subtilis 168 assessed as increase in average cell length at 7 uM incubated for 4 hrs in 69% of bacterial cells by fluorescent microscopy; type: functional
# Bacillus subtilis [17] = assay: Antibacterial activity against Bacillus subtilis 168 assessed as increase in average cell length at 7 uM incubated for 4 hrs in 82% of bacterial cells by fluorescent microscopy; type: functional
# Bacillus subtilis [18] = assay: Antibacterial activity against Bacillus subtilis 168 assessed as increase in average cell length at 7 uM incubated for 4 hrs in 23% of bacterial cells by fluorescent microscopy; type: functional
# Escherichia coli [19] = assay: Antibacterial activity against Escherichia coli XL1 assessed as fold increase in average cell length at 80 uM incubated for 4 hrs in by fluorescent microscopy; type: functional
# Bacillus subtilis [20] = assay: Antibacterial activity against Bacillus subtilis 168 assessed as fold increase in average cell length at 7 uM incubated for 4 hrs by fluorescent microscopy; type: functional
# [21] = biological target: T1, Cell division protein FtsZ (Bacillus subtilis) (UniProt A5Z1V5); assay: Inhibition of Bacillus subtilis PL642 GFP-tagged FtsZ assessed as decrease FtsZ ring at mid bacterial cells at 7 uM for 4 hrs by immunostaining based fluorescent microscopy
# T1 sequence (whole entry): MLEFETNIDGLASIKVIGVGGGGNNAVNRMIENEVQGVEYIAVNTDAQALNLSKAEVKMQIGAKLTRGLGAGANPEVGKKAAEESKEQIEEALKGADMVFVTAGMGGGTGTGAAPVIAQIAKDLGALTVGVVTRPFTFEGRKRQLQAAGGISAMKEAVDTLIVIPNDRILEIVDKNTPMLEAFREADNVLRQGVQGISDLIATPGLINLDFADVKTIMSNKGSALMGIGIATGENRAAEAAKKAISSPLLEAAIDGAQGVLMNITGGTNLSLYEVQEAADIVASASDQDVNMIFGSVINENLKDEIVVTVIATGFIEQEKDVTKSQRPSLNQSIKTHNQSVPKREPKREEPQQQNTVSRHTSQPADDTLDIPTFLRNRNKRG
# [22] = biological target: T1, Cell division protein FtsZ (Bacillus subtilis); assay: Inhibition of Bacillus subtilis 168 FtsZ assessed as decrease FtsZ ring at mid bacterial cells at 7 uM for 4 hrs by immunostaining based fluorescent microscopy
# [23] = biological target: T1, Cell division protein FtsZ (Bacillus subtilis); assay: Inhibition of Bacillus subtilis PL642 GFP-tagged FtsZ assessed as effect on nucleoid segregation at 7 uM for 4 hrs by immunostaining based fluorescent microscopy
# [24] = biological target: T1, Cell division protein FtsZ (Bacillus subtilis); assay: Inhibition of Bacillus subtilis 168 FtsZ assessed as effect on nucleoid segregation at 7 uM for 4 hrs by immunostaining based fluorescent microscopy
# [25] = biological target: T2, Cell division protein FtsZ (Escherichia coli K-12) (UniProt P0A9A6); assay: Inhibition of KCl-induced Escherichia coli BL21 FtsZ polymerization at 20 uM incubate for 10 min followed by KCl stimulation by spectrofluorimeter based light-scattering assay
# T2 sequence (whole entry): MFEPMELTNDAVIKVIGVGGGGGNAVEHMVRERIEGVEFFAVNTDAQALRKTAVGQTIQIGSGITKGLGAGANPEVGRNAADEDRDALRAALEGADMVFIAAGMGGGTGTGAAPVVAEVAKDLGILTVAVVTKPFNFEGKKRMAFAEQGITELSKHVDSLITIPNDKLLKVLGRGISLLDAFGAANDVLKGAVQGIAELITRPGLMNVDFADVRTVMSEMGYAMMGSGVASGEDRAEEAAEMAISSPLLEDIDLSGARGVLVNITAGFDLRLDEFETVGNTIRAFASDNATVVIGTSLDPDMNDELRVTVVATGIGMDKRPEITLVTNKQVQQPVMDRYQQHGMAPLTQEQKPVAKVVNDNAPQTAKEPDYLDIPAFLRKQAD
structure (smiles),measurement,setting,value
O=C1c2ccccc2C(=O)c2c(O)c(O)cc(O)c21 [PURPURIN],inhibition of growth at 300 µM,Escherichia coli [1],94.7%
same,inhibition of growth at 5 µM,Bacillus subtilis [2],47%
same,inhibition of growth at 10 µM,Bacillus subtilis [3],65%
same,inhibition of growth at 20 µM,Bacillus subtilis [4],86%
same,inhibition of growth at 30 µM,Bacillus subtilis [5],100%
same,pIC50,Bacillus subtilis [6],5.26
same,MIC,Bacillus subtilis [7],30 µM
same,inhibition of growth at 10 µM,Escherichia coli [8],12.5%
same,inhibition of growth at 20 µM,Escherichia coli [9],18.5%
same,inhibition of growth at 30 µM,Escherichia coli [10],25.6%
same,inhibition of growth at 80 µM,Escherichia coli [11],38%
same,inhibition of growth at 150 µM,Escherichia coli [12],47.8%
same,inhibition of growth at 200 µM,Escherichia coli [13],67.8%
same,Activity,Bacillus subtilis [14],7 um
same,Activity,Bacillus subtilis [15],10.1 um
same,Activity,Bacillus subtilis [16],15.1 um
same,Activity,Bacillus subtilis [17],20.1 um
same,Activity,Bacillus subtilis [18],50.1 um
same,fold change (FC),Escherichia coli [19],4
same,fold change (FC),Bacillus subtilis [20],10
same,Activity,[21],Active
same,Activity,[22],Active
same,Activity,[23],inactive
same,Activity,[24],inactive
same,inhibition,[25],20%
